Assay [1] has as its system Escherichia coli (E. coli—ATCC #10536). Nature of the assay: Synergy test: high resolution MBC microtiter plate assay, phosphate buffer containing 35% dipropylene glycol, 15 seconds contact. It counts as cell-based. The note with it: E. coli 10536; for SI (Synergy Index): at Qa and Qb, less than one = synergy; for MBC of the component acting alone (QA / QB; Qa or Qb where the other component is 0): complete kill in 15 seconds. The source says:
The concentrations and ratios may also vary under different test conditions or with different test methods.
One measure of synergy is the industrially accepted method described by Kull, F. C.; Eisman, P. C.; Sylwestrowicz, H. D, and Mayer, R. L., in Applied Microbiology 9:538-541 (1961), using the ratio determined by the formula: […]=Synergy Index (“SI”) wherein; QA=concentration of compound A (first component) in percent, acting alone, which produced an end point (MBC of Compound A). Qa=concentration of compound A in percent, in the mixture, which produced an end point. QB=concentration of compound B (second component) in percent, acting alone, which, produced an end point (MBC of Compound B). Qb=concentration of compound B in percent, in the mixture, which produced an end point.
When the sum of Qa/QA and Qb/QB is greater than one, antagonism is indicated. […] The lower the SI, the greater is the synergy shown by that particular mixture. The minimum biocidal concentration (MBC) of a microbicide is the lowest concentration tested under a specific set of conditions that provides complete kill of the tested microorganisms.
Synergy tests were conducted using standard microliter plate assays with phosphate buffer containing 35% dipropylene glycol (DPG). In this method, a wide range of combinations of chemicals was tested by conducting high resolution MBC assays of Component (A) in the presence of various concentrations of Component (B). High resolution MBCs were determined by adding varying amounts of microbicide to one column of a microliter plate and doing subsequent […] dilutions using an automated liquid handling, system to obtain a series of closely spaced endpoints. The MBC plate was inoculated one column at a time with the test microorganism. An aliquot of the inoculated well was transferred at 15 seconds to a plate containing a neutralizing agent (D/E Neutralizing Broth), mixed and held for 5 minutes before being transferred to a growth plate containing trypticase soy broth (TSB). The TSB plate was incubated at 37° C. and read for the presence/absence of growth at 24 hours. The lowest level tested that provided complete kill (as evidenced by no growth in the microtitre plate) of the test organisms in 15 seconds is the minimum biocidal concentration (MBC).
The synergy of the combinations of the present invention was determined against a bacterium, Escherichia coli (E. coli—ATCC #10536), at a concentration of approximately 1×10^8 it bacteria per mL. This microorganism is representative of natural contaminants in many consumer and industrial applications.

The test system is the same in assay [2]. Nature of the assay: Automated assessment of efficacy in surfactant base (2.85% sodium cocoyl glycinate and 1.85% sodium lauroamphoacetate, pH 10.0), 15 seconds exposure. Type of assay: cell-based. The following applies: for MBC (minimum biocidal concentration): in 2.85% sodium cocoyl glycinate + 1.85% sodium lauroamphoacetate solution at pH 10, E. coli; for No. of replicates showing growth (out of 4) / Δ OD 450 nm = OD450 (time = 16 hours) − OD450 (time zero), Mean / Δ OD 590 nm OD590 (time = 16 hours) − OD590 (time zero), Mean: alone, model surfactant solution. The protocol: Test Methodology for Automated Assessment of Efficacy in Surfactant Base Microbiocidal Activity of Actives as Per the Invention in a Model Surfactant Medium Test Methodology for Automated Assessment of Efficacy in Surfactant Base In these examples, the efficacy of combinations of actives were tested in a surfactant cleansing formulation comprising 2.85% sodium cocoyl glycinate and 1.85% sodium lauroamphoacetate. This corresponds to a 50% in use dilution with water of a neat formulation containing 5.7% cocoyl glycinate and […] % sodium, lauroamphoacetate during hand washing. Solutions were prepared such that the concentrations of the surfactant components and test actives were 1.1× the final desired concentration in order to allow for dilution with the bacterial inoculum in the test. The solutions were manually adjusted to pH 10.0 by dropwise addition of sodium hydroxide solution, as measured with a pH meter at ambient temperature. The efficacy of the combinations of the present invention was determined against Escherichia coli (E. coli—ATCC #10536), at a concentration of approximately 1×10^8 bacteria per mL. Tests were conducted using standard microtiter plate assays using an automated liquid handling system. 270 μl of the surfactant test solution was pipetted into each well of the microtitre plate and 30 μl of the bacterial suspension was then added. Alter exactly 15 seconds of bacterial exposure, a 30 μl volume of bacterial cells was withdrawn and transferred to 270 μl of D/E quench solution. After 5 minutes in the D/E quench, the optical density (OD) was measured for each plate in turn at two specific wavelengths (450 nm and 590 nm). These provide a dual check of antimicrobial activity, as the OD450 reading is specific for the yellow colour of D/E quench when bacterial growth is observed, whereas OD590 is specific for the initial purple colour of the D/E quench which is retained if no bacterial growth is observed. After the time zero OD measurements, plates were then incubated at 37° C. overnight (16 hours) before repeating the OD measurements. Delta OD values were calculated by subtracting […]. Bacterial growth is observed as an increase in OD450 and a decrease in ΔOD590. To identify antibacterially efficacious systems (those preventing appreciable bacterial growth after incubation), the following threshold changes in OD readings have been adopted: if (1). OD450 increases by less than 0.2 absorbance unit on incubation and (2). OD590 decreases by less than 0.35 unit on incubation. Conversely, where OD450 increases by more than 0.2 AU and OD590 decreases by more than 0.35 unit after incubation, corresponding to a colour shift from purple to yellow, the test system allows bacterial growth and is not deemed efficacious. Four replicate measurements in the same plate have been made for each test system. The number of replicate wells showing either bacterial growth or no growth is also readily assessed by eye by following the colour change. Dose responses for individual components and binary mixtures of actives at a fixed concentration ratio were generated by sequential dilution of liquors with further surfactant solution to obtain a series of endpoints. […] In some selected cases, the combinations were also tested at the weight ratio 1:1.

The source of these data is patent US9320271B2, “Microbial composition” (Rohm and Haas Company, priority 2011, dated 2016).

“And” between values parts separate entries of the source, which are not always exact repeats. Equal values may be shown once. Where only a bound is given, the exact number is not on record here.

`CC1=CC(C)C(CO)C(C)C1` (centres unmarked) [2,4,6-trimethyl-3-cyclohexene-1-methanol]: in assay [1], the “SI (Synergy Index)” value is on record as 1.00; the “MBC of the component acting alone (QA / QB; Qa or Qb where the other component is 0)” value was 0.6 weight % and 1 weight % and 0.8 weight % and 0.3 weight %. The “MBC (minimum biocidal concentration)” value in assay [2] is recorded as 0.4 % w/v.
Take `CC1=CCC(C(C)CO)CC1` (centres unmarked) [2-(4-methylcyclohex-3-enyl)propan-1-ol]: in assay [1], the “SI (Synergy Index)” value worked out at 1.00; the “MBC of the component acting alone (QA / QB; Qa or Qb where the other component is 0)” value is 0.3 weight % and 0.25 weight %. Also, the “MBC of the component acting alone (QA / QB; Qa or Qb where the other component is 0)” value in assay [1] (listed as 2-(4-methylcylohex-3-enyl)propan-1-ol) came out at 0.25 weight %.
With `Oc1ccccc1C1CCCC1` [2-cyclopentylphenol], in assay [1], the “SI (Synergy Index)” value turned out to be 1.00; the “MBC of the component acting alone (QA / QB; Qa or Qb where the other component is 0)” value is 0.3 weight % and 0.5 weight %. Also, in assay [2] (0.1% w/v), the “No. of replicates showing growth (out of 4)” value is 4; the “Δ OD 450 nm = OD450 (time = 16 hours) − OD450 (time zero), Mean” value (from here on “Δ OD 450 nm = OD450”) is −0.57; the “Δ OD 590 nm OD590 (time = 16 hours) − OD590 (time zero), Mean” value (“Δ OD 590 nm OD590” below) was 0.56. In addition, in assay [2] (0.2% w/v), the “No. of replicates showing growth (out of 4)” value stood at 4; the “Δ OD 450 nm = OD450” value is −0.52; the “Δ OD 590 nm OD590” value is recorded as 0.61. Besides, in assay [2] ([…] w/v), the “No. of replicates showing growth (out of 4)” value was found to be 4; the “Δ OD 450 nm = OD450” value is −0.56; the “Δ OD 590 nm OD590” value is 0.54. In assay [2], the “MBC (minimum biocidal concentration)” value is over 0.2 % w/v.
`Oc1ccccc1Cc1ccccc1` [2-hydroxydiphenylmethane]: in assay [1], the “SI (Synergy Index)” value turned out to be 1.00; the “MBC of the component acting alone (QA / QB; Qa or Qb where the other component is 0)” value was 0.8 weight % and 0.5 weight % and 0.6 weight %. Moreover, in assay [2] (0.1% w/v), the “No. of replicates showing growth (out of 4)” value is 4; the “Δ OD 450 nm = OD450” value is −0.51; the “Δ OD 590 nm OD590” value was determined as 0.62. Moreover, in assay [2] (0.2% w/v), the “No. of replicates showing growth (out of 4)” value worked out at 4; the “Δ OD 450 nm = OD450” value was −0.51; the “Δ OD 590 nm OD590” value was found to be 0.63. Besides, in assay [2] ([…] w/v), the “No. of replicates showing growth (out of 4)” value was 4; the “Δ OD 450 nm = OD450” value is on record as −0.49; the “Δ OD 590 nm OD590” value is 0.64. For the same compound, the “MBC (minimum biocidal concentration)” value in assay [2] is over 0.2 % w/v.
For `Cc1cc(O)c(C(C)C)cc1Cl` [4-chloro-2-isopropyl-5-methylphenol, reference compound], the “MBC (minimum biocidal concentration)” value in assay [2] is on record as over 0.2 % w/v.
For `Cc1cc(O)cc(C)c1Cl` [4-chloro-3,5-dimethylphenol], in assay [1], the “SI (Synergy Index)” value is given as 1.00; the “MBC of the component acting alone (QA / QB; Qa or Qb where the other component is 0)” value was 0.6 weight % and 1.0 weight % and 0.5 weight %. Moreover, in assay [2] (0.1% w/v), the “No. of replicates showing growth (out of 4)” value was found to be 4; the “Δ OD 450 nm = OD450” value was −0.49; the “Δ OD 590 nm OD590” value came out at 0.63. In addition, in assay [2] (0.2% w/v), the “No. of replicates showing growth (out of 4)” value was found to be 4; the “Δ OD 450 nm = OD450” value is listed as −0.50; the “Δ OD 590 nm OD590” value was found to be 0.62. In assay [2] ([…] w/v), the “No. of replicates showing growth (out of 4)” value came out at 4; the “Δ OD 450 nm = OD450” value is given as −0.47; the “Δ OD 590 nm OD590” value is 0.63. For the same compound, in assay [2], the “MBC (minimum biocidal concentration)” value is listed as over 0.2 % w/v.
With `Oc1ccc(C2CCCC2)cc1` [4-cyclopentylphenol], in assay [1], the “SI (Synergy Index)” value amounted to 1.00; the “MBC of the component acting alone (QA / QB; Qa or Qb where the other component is 0)” value is 0.3 weight % and 0.5 weight % and 0.2 weight %. Further, in assay [2] (0.125% w/v), the “No. of replicates showing growth (out of 4)” value stood at 4; the “Δ OD 450 nm = OD450” value is recorded as −0.49; the “Δ OD 590 nm OD590” value was 0.62. For the same compound, in assay [2] (0.2% w/v), the “No. of replicates showing growth (out of 4)” value was determined as 4; the “Δ OD 450 nm = OD450” value is −0.40; the “Δ OD 590 nm OD590” value came out at 0.70. Besides, in assay [2] ([…] w/v), the “No. of replicates showing growth (out of 4)” value is 4; the “Δ OD 450 nm = OD450” value is listed as −0.45; the “Δ OD 590 nm OD590” value is given as 0.65. Moreover, the “MBC (minimum biocidal concentration)” value in assay [2] is listed as over 0.2 % w/v.
On to `Oc1ccc(Cc2ccccc2)cc1` [4-hydroxydiphenylmethane], for which, in assay [1], the “SI (Synergy Index)” value is reported as 1.00; the “MBC of the component acting alone (QA / QB; Qa or Qb where the other component is 0)” value is 0.8 weight % and 0.6 weight %. Moreover, in assay [2] (0.1% w/v), the “No. of replicates showing growth (out of 4)” value is reported as 4; the “Δ OD 450 nm = OD450” value is reported as −0.58; the “Δ OD 590 nm OD590” value is 0.52. In assay [2] (0.2% w/v), the “No. of replicates showing growth (out of 4)” value was 4; the “Δ OD 450 nm = OD450” value is recorded as −0.52; the “Δ OD 590 nm OD590” value stood at 0.61. Also, in assay [2] ([…] w/v), the “No. of replicates showing growth (out of 4)” value worked out at 4; the “Δ OD 450 nm = OD450” value was −0.55; the “Δ OD 590 nm OD590” value was 0.54. The “MBC (minimum biocidal concentration)” value in assay [2] is listed as over 0.2 % w/v.
For the compound `C=C(C)[C@@H]1CC=C(CO)CC1` [(S)-(−) perillyl alcohol], in assay [2] (0.2% w/v), the “No. of replicates showing growth (out of 4)” value is 4; the “Δ OD 450 nm = OD450” value is reported as −1.49; the “Δ OD 590 nm OD590” value is reported as 0.29. In assay [2] (0.5% w/v), the “No. of replicates showing growth (out of 4)” value is 0; the “Δ OD 450 nm = OD450” value is recorded as −0.04; the “Δ OD 590 nm OD590” value is given as 0.07.
Consider `CC1=CC(C)C(CO)C(C)C1` (centres unmarked) [Isocyclo-Geraniol], for which, in assay [2] (0.2% w/v), the “No. of replicates showing growth (out of 4)” value is on record as 4; the “Δ OD 450 nm = OD450” value was −1.50; the “Δ OD 590 nm OD590” value came to 0.29. In assay [2] (0.4% w/v), the “No. of replicates showing growth (out of 4)” value was found to be 0; the “Δ OD 450 nm = OD450” value is −0.06; the “Δ OD 590 nm OD590” value is recorded as 0.09. Moreover, the “No. of replicates showing growth (out of 4)” value in assay [2] ([…] w/v) was determined as 4.
